Experimental data from patent publication US7109193B2, “Tricyclic diazepines tocolytic oxytocin receptor antagonists” (Wyeth, priority 2001, dated 2006).

Biological target: T1, human vasopressin V1a receptor subtype (Homo sapiens, UniProt P37288)
T1 construct: host or cells: CHO cells (pZeoSV vector for the Thibonnier line)
Experiment: Vasopressin binding in Chinese Hamster Ovary cell membranes expressing human vasopressin V1a subtype receptors
Details: 100 nM, CHO cell membranes, [3H]Manning ligand, values without parentheses
Summary of the method: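 Displacement of [3H]Manning ligand (8 nM working solution) from human V1a receptors in CHO cell membranes, 25–50 μg protein per well. Incubation ran 60 min at room temperature in 50 mM Tris-HCl pH 7.4 with protease inhibitors, followed by filtration and scintillation counting. Results are given as IC50 or percent inhibition.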

T1 sequence (P37288 whole entry): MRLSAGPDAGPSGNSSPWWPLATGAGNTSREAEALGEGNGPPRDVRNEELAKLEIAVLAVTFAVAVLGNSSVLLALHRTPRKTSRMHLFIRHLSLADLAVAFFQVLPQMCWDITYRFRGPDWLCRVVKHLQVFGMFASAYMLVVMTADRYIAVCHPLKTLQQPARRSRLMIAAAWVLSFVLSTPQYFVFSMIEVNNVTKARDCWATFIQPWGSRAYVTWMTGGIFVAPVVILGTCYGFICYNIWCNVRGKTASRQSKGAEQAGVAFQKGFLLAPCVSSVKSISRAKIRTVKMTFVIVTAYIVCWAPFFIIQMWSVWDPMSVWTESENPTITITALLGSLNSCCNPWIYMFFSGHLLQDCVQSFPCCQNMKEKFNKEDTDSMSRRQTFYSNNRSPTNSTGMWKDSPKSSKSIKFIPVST

Compound | inhibition at 0.1 µM | V1a % inhibition @ 100 nM
COc1cccc(-c2ccc(C(=O)N3Cc4ccc(C(=O)N5CC[C@@H](N(C)C)C5)n4Cc4ccccc43)cc2OC)c1 [Example 283, {10-[(2,3′-Dimethoxy[1,1′-biphenyl]-4-yl)carbonyl]-10,11-dihydro-5H-pyrrolo[2,1-c][1,4]benzodiazepin-3-yl}[(3R)-3-(dimethylamino)pyrrolidinyl]methanone] |  | 40%
COc1ccccc1-c1ccc(C(=O)N2Cc3ccc(C(=O)N4CC[C@@H](N(C)C)C4)n3Cc3ccccc32)cc1 [Example 279, [(3R)-3-(Dimethylamino)pyrrolidinyl]{10-[(2′-methoxy[1,1′-biphenyl]-4-yl)carbonyl]-10,11-dihydro-5H-pyrrolo[2,1-c][1,4]benzodiazepin-3-yl}methanone] |  | 39%
COc1ccccc1-c1ccc(C(=O)N2Cc3ccc(C(=O)N4CC[C@@H](N(C)C)C4)n3Cc3ccccc32)cc1OC [Example 282, {10-[(2,2′-Dimethoxy[1,1′-biphenyl]-4-yl)carbonyl]-10,11-dihydro-5H-pyrrolo[2,1-c][1,4]benzodiazepin-3-yl][(3R)-3-(dimethylamino)pyrrolidinyl]methanone] |  | 1%
COc1cccc(-c2ccc(C(=O)N3Cc4ccc(C(=O)NCCC5CCCN5C)n4Cc4ccccc43)cc2C)c1 (stereo not shown) [Example 164, 10-[(3′-Methoxy-2-methyl[1′1′-biphenyl]-4-yl)carbonyl]-N-[2-(1-methyl-2-pyrrolidinyl)ethyl]-10,11-dihydro-5H-pyrrolo[2,1-c][1,4]benzodiazepine-3-carboxamide] |  | 23%
COc1cc(-c2ccccc2C)c(Cl)cc1C(=O)N1Cc2ccc(C(=O)NCCCn3ccnc3)n2Cc2ccccc21 [Example 129, 10-[(6-Chloro-3-methoxy-2′-methyl[1,1′-biphenyl]-4-yl)carbonyl]-N-[3-(1H-imidazol-1-yl)propyl]-10,11-dihydro-5H-pyrrolo[2,1-c][1,4]benzodiazepine-3-carboxamide] | 6% | 
COC(=O)c1ccc2c(c1)N(C(=O)c1ccc(-c3ccccc3C(F)(F)F)c(C)c1)Cc1cccn1C2 [Example 26, Methyl 10-{[2-methyl-2′-trifluoromethyl-[1,1′-biphenyl]-4-yl]carbonyl}-10,11-dihydro-5H-pyrrolo[2,1-c][1.4]benzodiazepine-8-carboxylate] |  | −3%

More lines, main results first:

inhibition at 0.1 µM | Compound | V1a % inhibition @ 100 nM
9% | COc1cccc(-c2ccc(C(=O)N3Cc4ccc(C(=O)N5CCC(N6CCCC6)CC5)n4Cc4ccccc43)cc2C)c1 [Example 139, {10-[(3′-Methoxy-2-methyl[1,1′-biphenyl]-4-yl)carbonyl]-10,11-dihydro-5H-pyrrolo[2,1-c][1,4]benzodiazepin-3-yl}[4-(1-pyrrolidinyl)-1-piperidinyl]methanone] | 
8% | COc1cc(C(=O)N2Cc3ccc(C(=O)NCCCn4ccnc4)n3Cc3ccccc32)ccc1-c1cccc2ccccc12 [Example 131, N-[3-(1H-Imidazol-1-yl)propyl]-10-[3-methoxy-4-(1-naphthyl)benzoyl]-10,11-dihydro-5H-pyrrolo[2,1-c][1,4]benzodiazepine-3-carboxamide] | 
15% | COc1ccccc1-c1ccc(C(=O)N2Cc3ccc(C(=O)N(C)CCCN(C)C)n3Cc3ccccc32)cc1OC [Example 107, 10-[(2,2′-Dimethoxy[1,1′-biphenyl]-4-yl)carbonyl]-N-[3-(dimethylamino)propyl]-N-methyl-10,11-dihydro-5H-pyrrolo[2,1-c][1,4]benzodiazepine-3-carboxamide] | 
8% | COc1ccccc1-c1ccc(C(=O)N2Cc3ccc(C(=O)N4CCC(N5CCCCC5)CC4)n3Cc3ccccc32)cc1C [Example 112, {10-[(2-Methyl-2′-methoxy[1,1′-biphenyl]-4-yl)carbonyl]-10,11-dihydro-5H-pyrrolo[2,1-c][1,4]benzodiazepin-3-yl}[4-(1-piperidinyl)-1-piperidinyl]methanone] | 
